Ki and IC50 data for 57 compounds are collected here from patent US6465433B1, “Boronic ester and acid compounds, synthesis and uses” (Millennium Pharmaceuticals, Inc., priority 1994, dated 2002).

Assay [1] concerns the target SDS-activated 20S proteasome from rabbit muscle (Oryctolagus cuniculus, UniProt G1SU71+G1T4Q9). The experiment in a line: Kinetic assay: inhibition of the 20S proteasome. In kind it is biochemical. The protocol: P, AA^1, AA^2, AA^3, and Z^1 and Z^2 represent the structures present on formula (1) or (2). The protocol for the kinetic assay described in Tables II-V is as described in Rock et al., Cell 78:761-771 (1994). In these tables, Ki values are reported, which are dissociation constants for the equilibrium that is established when enzyme and inhibitor interact to form the enzyme:inhibitor complex. The reactions were performed using SDS-activated 20S proteasome from rabbit muscle. The substrate used was Suc-LLVY-AMC.

In a further assay the test system is C2C12 cells. As to the kind of experiment: Inhibition of protein degradation in C2C12 cells. The assay is classed as cell-based, mouse. Conditions: 35S-methionine labelled cells, percent decrease in TCA soluble radioactivity, media with 50% serum. The protocol:
One approach to testing drug candidates for their ability to inhibit the ATP-ubiquitin-dependent degradative process is to measure proteolysis in cultured cells (Rock, et al., Cell 78:761 (1994)). For example, the degradation of long-lived intracellular proteins can be measured in mouse C2C12 myoblast cells. Cells are incubated with ^35S-methionine for 48 hours to label long-lived proteins and then chased for 2 hours with medium containing unlabeled methionine. After the chase period, the cells are incubated for 4 hours in the presence or absence of the test compound. The amount of protein degradation in the cell can be measured by quantitating the trichloroacetic acid soluble radioactivity released from the pre-labeled proteins into the growth medium (an indicator of intracellular proteolysis).
C2C12 cells (a mouse myoblast line) were labelled for 48 hrs with ^35S-methionine. The cells were then washed and preincubated for 2 hrs in the same media supplemented with 2 mM unlabelled methionine. The media was removed and replaced with a fresh aliquot of the preincubation media containing 50% serum, and a concentration of the compound to be tested. The media was then removed and made up to 10% TCA and centrifuged. The TCA soluble radioactivity was counted. Inhibition of proteolysis was calculated as the percent decrease in TCA soluble radioactivity.

Setting [2] is: Table II, SDS-activated 20S proteasome from rabbit muscle, substrate Suc-LLVY-AMC.
Setting [3] is: Table III, dipeptide boronic acid vs dipeptide aldehyde.

By Ki is commonly meant the equilibrium dissociation constant of an inhibitor or competing ligand from its target. Low values mean tighter binding, high ones weaker binding. As a reminder, the IC50 is the concentration that inhibits the measured activity by half. In assay [1] (setting [2]), `CN[C@@H](Cc1cccc2ccccc12)C(=O)N[C@@H](CC(C)C)B(O)O` [MG-333] came in with a Ki of 2.1 nM. Further, the IC50 in the assay on C2C12 cells (Mus musculus, C2C12) was found to be 220 nM.

Consider `CC(C)CC(NC(=O)C(CC(C)C)NC(=O)OCc1ccccc1)B1OC2CC3CC(C3(C)C)C2(C)O1` (centres unmarked) [MG-264], for which, in assay [1] (setting [2]), the Ki is 119 nM. Still for that read-out and setting: the figure for “cis-3-Phenyl-D,L-proline-L-leucine Boronic Acid Hydrochloride Salt [MG-359]” is 5.5 nM. As to `CC(=O)N[C@@H](CC(C)C)C(=O)N[C@@H](CC(C)C)C(=O)N[C@@H](CC(C)C)B(O)O` [MG-283], the inhibitory constant (Ki) in assay [1] (setting [2]) worked out at 0.46 nM. The concentration for half-maximal inhibition (IC50) in the assay with C2C12 cells (Mus musculus, C2C12) was 3000 nM. On to `CC(C)C[C@H](NC(=O)[C@@H]1C[C@@H](OCc2ccc3ccccc3n2)CN1)B(O)O` [MG-385], for which the Ki in assay [1] (setting [2]) is 23 nM. In turn, `CC(C)C[C@H](NC(=O)[C@H](Cc1c[nH]cn1)NC(=O)OCc1ccccc1)B(O)O` [MG-282] returned a Ki in assay [1] (setting [2]) of 25 nM. In addition, in the assay on C2C12 cells, the IC50 was 64000 nM.

As to `CC(C)CC(NC(=O)C(Cc1ccc2ccccc2c1)NC(=O)N1CCOCC1)B(O)O` (centres unmarked) [MG-308], in assay [1] (setting [2]), the Ki came out at 0.72 nM. Further, the IC50 in the assay with C2C12 cells came to 96 nM. For `CC(C)C[C@@H](NC(=O)[C@H](Cc1ccc(F)cc1)NC(=O)c1ccccn1)B(O)O` [MG-383], in assay [1] (setting [2]), the Ki was 0.84 nM.

In the case of `CC(C)C[C@H](NC(=O)[C@H](Cc1cccnc1)NS(C)(=O)=O)B(O)O` [MG-289], the Ki in assay [1] (setting [2]) was found to be 6.3 nM. Further, the IC50 with C2C12 cells was found to be 10800 nM.

As to `CO[C@](C(=O)N[C@@H](CC(C)C)B(O)O)(c1ccccc1)C(F)(F)F` [MG-284], in assay [1] (setting [2]), the affinity corresponds to a Ki of 1200 nM. Consider “N-Cbz-L-Leucine-L-leucine Boronic Acid [MG-274]”, for which the Ki in assay [1] (setting [2]) and in assay [1] (setting [3]) was 3 nM each time. Moreover, in the assay on C2C12 cells, the IC50 turned out to be 340 nM.

Turning to `CC(C)CC(NC(=O)C1CCCCN1)B(O)O` (centres unmarked) [MG-357], the Ki in assay [1] (setting [2]) turned out to be 23 nM. Still for that read-out and setting: the figure for `CC(C)C[C@H](NC(=O)[C@H](Cc1cccnc1)NC(=O)N1CCOCC1)B(O)O` [MG-300] is 1.3 nM. The compound “β-(1-Naphthyl)-L-alanine-L-leucine Boronic Acid [MG-303]” gave a Ki in assay [1] (setting [2]) of 3.9 nM. In the assay on C2C12 cells, the IC50 is 340 nM. In assay [1] (setting [2]), `CC(C)C[C@H](NC(=O)[C@H](CCc1ccccc1)NC(=O)c1ccc2ccccc2n1)B(O)O` [MG-325, N-(2quinoline)carbonyl-L-homophenylalanine-L-leucine boronic acid] came in with a Ki of 2.8 nM. Further, the IC50 in the assay with C2C12 cells (Mus musculus, C2C12) was 1100 nM.

`CC(C)C[C@H](NC(=O)[C@H](Cc1cccc2ccccc12)NC(=O)c1cnc2ccccc2n1)B(O)O` [MG-299] registered an inhibition constant Ki in assay [1] (setting [2]) of 0.14 nM. For the same compound, in the assay with C2C12 cells, the IC50 stood at 280 nM. “N-(3-phenylpropionyl)-L-phenylalanine-L-leucine boronic acid [MG-352]” gave a Ki in assay [1] (setting [2]) of 0.15 nM. Same read-out and setting: the figure for `CC(C)CC(NC(=O)C1CC2CCCCC2N1)B(O)O` (centres unmarked) [MG-386] is 92 nM; for `CC(C)C[C@H](NC(=O)[C@@H]1CCCCN1)B(O)O` [MG-366] it is 45.2 nM. The compound `CC(C)C[C@H](NC(=O)[C@H](Cc1cccc2ccccc12)NC(=O)N1CCOCC1)B1OCCNCCO1` [MG-286, Diethanolamine N-(4-Morpholine)carbonyl-β-(1-naphthyl)-L-alanine-L-leucine Boronate] had a Ki in assay [1] (setting [2]) of 0.15 nM. In addition, the IC50 in the assay with C2C12 cells (Mus musculus, C2C12) was determined as 95 nM. In turn, `CC(C)C[C@H](NC(=O)[C@H](Cc1ccccc1)NS(=O)(=O)c1cccc2cccnc12)B(O)O` [MG-380] came in with a Ki in assay [1] (setting [2]) of 4.4 nM. On the same count and under the same terms, the figure for `CC(C)C[C@H](NC(=O)NCc1ccccc1)B(O)O` [MG-362] is 6400 nM. On the same count and under the same terms, the figure for `CC(C)C[C@H](NC(=O)[C@@H](CC(=O)N1CCOCC1)Cc1cccc2ccccc12)B(O)O` [MG-324, N-[3-(4-Morpholine)carbonyl-2(R)-(1-naphthyl)methyl]propionyl-L-leucine Boronic Acid] is 2 nM. Same read-out and setting: the figure for `CC(C)C[C@H](NC(=O)[C@H](Cc1ccccc1)NC(=O)c1cc[nH]c1)B(O)O` [MG-361] is 0.14 nM; for `CC(C)C[C@H](NC(=O)C[C@H](O)[C@H](Cc1cccc2ccccc12)NS(=O)(=O)c1cccc2cccnc12)B(O)O` [MG-354] it is 28 nM. In turn, `CC(C)C[C@H](NC(=O)[C@H](Cc1ccccn1)NC(=O)c1ccc2ccccc2n1)B(O)O` [MG-338] yielded a Ki in assay [1] (setting [2]) of 1.4 nM. Turning to `CC(C)CC(NC(=O)C(CCc1ccccc1)NC(=O)N1CCOCC1)B(O)O` (centres unmarked) [MG-322], in assay [1] (setting [2]), the Ki came to 2.2 nM. In addition, the IC50 in the assay on C2C12 cells was 380 nM. For `CC(C)CC(NC(=O)C1CCCNC1)B(O)O` (centres unmarked) [MG-339], the affinity in assay [1] (setting [2]) corresponds to a Ki of 1600 nM. As for `CC(C)C[C@H](NC(=O)[C@@H]1Cc2ccccc2CN1)B(O)O` [MG-316], in assay [1] (setting [2]), the Ki is 22 nM. The IC50 in the assay with C2C12 cells (Mus musculus, C2C12) was 21000 nM. As for `CC(C)C[C@H](NC(=O)[C@@H]1C[C@@H](O)CN1)B(O)O` [MG-348], the Ki in assay [1] (setting [2]) worked out at 21 nM. On the same count and under the same terms, the figure for `CC(C)CC(NC(=O)C(CC(C)C)NC(=O)C(CC(C)C)NC(=O)OCc1ccccc1)B1OC2CC3CC(C3(C)C)C2(C)O1` (centres unmarked) [MG-261] is 0.032 nM; for `CC(C)CC(NC(=O)C1NCCc2ccccc21)B(O)O` (centres unmarked) [MG-337] it is 230 nM; for `CC(C)CC(NC(=O)C(Cc1cccc2ccccc12)NC(=O)N1CCOCC1)B(O)O` (centres unmarked) [MG-293] it is 2300 nM. Turning to `CC(C)C[C@H](NC(=O)[C@H](Cc1cccc2ccccc12)NC(=O)c1ccccc1)B(O)O` [MG-328], the inhibition constant (Ki) in assay [1] (setting [2]) was 0.088 nM. Moreover, in the assay with C2C12 cells, the IC50 came to 69 nM. The matching figures for `CC(C)C[C@H](NC(=O)[C@H](Cc1cccc2ccccc12)NC(=O)c1ccc2ccccc2n1)B(O)O` [MG-298]: 0.075 nM and 230 nM. With `CB(O)[C@H](CC(C)C)NC(=O)[C@H](Cc1cccc2ccccc12)NC(=O)N1CCOCC1` [MG-317, N-(4-Morplioline)carbonyl-β-(1-naphtlyl)-L-alanine-L-leucine Methylboronic Acid], affinity in assay [1] (setting [2]) was put at a Ki of 99 nM. In assay [1] (setting [2]), `CC(C)C[C@H](NC(=O)[C@H](Cc1ccccc1)NC(=O)c1ccccc1)B(O)O` [MG-353] displayed an inhibition constant (Ki) of 0.15 nM. In the case of `CC(C)C[C@H](NC(=O)[C@H](Cc1ccccc1)NC(=O)c1ccccn1)B(O)O` [MG-343], affinity in assay [1] (setting [2]) was put at a Ki of 0.42 nM. Further, the IC50 in the assay on C2C12 cells was determined as 57 nM. The matching figures for `CC(C)CC(NC(=O)C(Cc1ccc2ccccc2c1)NC(=O)OCc1ccccc1)B(O)O` (centres unmarked) [MG-272]: 34 nM and 6000 nM.

Regarding `CC(C)C[C@H](NC(=O)[C@@H](N)Cc1cccnc1)B(O)O` [MG-294], in assay [1] (setting [2]), the Ki was 152 nM.

As for `CC(C)C[C@H](NC(=O)[C@H](Cc1cccc2ccccc12)NS(C)(=O)=O)B1OCCNCCO1` [MG-291], the Ki in assay [1] (setting [2]) was found to be 0.28 nM.

In the case of `CC(=O)N1Cc2[nH]c3ccccc3c2C[C@H]1C(=O)N[C@@H](CC(C)C)B(O)O` [MG-344], in assay [1] (setting [2]), the Ki was 51 nM.

In the case of `CB(C)[C@H](CC(C)C)NC(=O)[C@H](Cc1cccc2ccccc12)NC(=O)N1CCOCC1` [MG-318, N-(4-Morpholine)carbonyl-β-(1-naphthyl)-L-alanine-L-leucine Dimethylborane], the affinity in assay [1] (setting [2]), expressed as Ki, was 640 nM. Still for that read-out and setting: the figure for “trans-3-Phenyl-D,L-proline-L-leucine Boronic Acid Hydrochloride Salt [MG-363]” is 3.45 nM; for `CC(C)C[C@H](NC(=O)[C@H](Cc1ccc(F)cc1)NC(=O)c1cnccn1)B(O)O` [MG-382] it is 0.95 nM; for “trans-4-Phenoxy-L-proline-L-leucine Boronic Acid [MG-349]” it is 18 nM.

`CC(C)C[C@H](NC(=O)[C@H](Cc1ccccc1)NC(=O)OCc1ccccc1)B(O)O` [MG-356] had an inhibition constant (Ki) in assay [1] (setting [2]) of 0.13 nM. The same measure, in the same setting: the figure for `CC(=O)N[C@@H](CC(C)C)B(O)O` [MG-323] is 850 nM; for `CC(C)C[C@H](NC(=O)[C@H](Cc1c[nH]c2ccccc12)NS(C)(=O)=O)B(O)O` [MG-295] it is 5.8 nM; for `CC(C)C[C@H](NC(=O)[C@@H]1CCN1)B(O)O` [MG-369] it is 24.2 nM.

Take `CC(C)C[C@H](NC(=O)[C@H](Cc1ccccc1)NC(=O)c1ccoc1)B(O)O` [MG-358]: the affinity in assay [1] (setting [2]) corresponds to a Ki of 0.17 nM. In the case of `CC(C)C[C@H](NC(=O)[C@H](Cc1ccccn1)NC(=O)c1cnccn1)B(O)O` [MG-368], in assay [1] (setting [2]), the Ki came out at 5.6 nM.

As to `CC(=O)N1Cc2ccccc2CC1C(=O)N[C@@H](CC(C)C)B(O)O` (stereo partly drawn) [MG-310, N-Acetyl-1,2,3,4-tetrahydro-3-isoquinolinecarbonyl-L-leucine Boronic Acid], the affinity in assay [1] (setting [2]), expressed as Ki, was 90 nM. Take `CC(C)C[C@@H](C=O)NC(=O)[C@H](CC(C)C)NC(=O)OCc1ccccc1` [MG-105, reference compound]: affinity in assay [1] (setting [3]) was put at a Ki of 15000 nM. In turn, “N-Methyl-N-Cbz-L-leucine-L-leucine Boronic Acid [MG-268]” had a Ki in assay [1] (setting [2]) of 998 nM. `CC(C)C[C@H](NC(=O)CCc1ccccc1)B(O)O` [MG-313]: in the assay on C2C12 cells (Mus musculus, C2C12), the IC50 turned out to be 3500 nM.

In turn, `CC(C)C[C@H](CC(=O)NCc1ccccc1)B(O)O` [MG-342, N-Benzyl-(3R)-3-dioxyboryl-5-methylhexanamide] came in with a Ki in assay [1] (setting [2]) of 9700 nM.
